Reference: the supplement of paper PMC10307832

Tests used:
Assay in all cases: relative viability (nuclei count vs DMSO), 5 days (fraction); higher = more cells survive
[1] = compound: OCc1c[nH]c2ccccc12 [Indole-3-carbinol] + C[C@@H](Oc1cc(-c2cnn(C3CCNCC3)c2)cnc1N)c1c(Cl)ccc(F)c1Cl [Crizotinib] (partner 1 µM)
Summary of the method: (§1)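 Medians of duplicate plates are given as relative viability. That measure is the nuclei count in treated wells divided by the count in vehicle wells. Counts were taken on 4× images of lung cancer cell lines in 1536-well plates, 5 days after pin-tool dosing the day after seeding with one drug alone or a fixed anchor-drug dose plus five library-drug doses (not always all listed) in √10 steps.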

[2] = compound: OCc1c[nH]c2ccccc12 [Indole-3-carbinol] + C[C@]1(O)C[C@@H](c2nc(-c3ccc4ccc(-c5ccccc5)nc4c3)c3c(N)nccn32)C1 [Linsitinib] (partner 1 µM)
Summary of the method: as §1

[3] = compound: OCc1c[nH]c2ccccc12 [Indole-3-carbinol] + O=C(CCCCCCC(=O)Nc1ccccc1)NO [Vorinostat] (partner 1 µM)
Summary of the method: as §1

Indole-3-carbinol = compound: OCc1c[nH]c2ccccc12 [Indole-3-carbinol]
Summary of the method: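 Five library-drug doses spaced by √10 were pinned onto vehicle-anchored 1536-well plates of lung cancer cell lines that had been kept overnight at 37 °C. Cells went 5 days without medium change, then were fixed, permeabilised and Hoechst-stained together, imaged at 4× and counted by MetaXpress. Viability is the ratio of treated-well to vehicle-well nuclei, taken as a median over plates. Plates required control CV below 25% and at least one doubling.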

[4] = compound: OCc1c[nH]c2ccccc12 [Indole-3-carbinol] + CCNC(=O)c1noc(-c2cc(C(C)C)c(O)cc2O)c1-c1ccc(CN2CCOCC2)cc1 [Luminespib] (partner 0.01 µM)
Summary of the method: as §1

| Cell Line | relative viability ([1]; first compound 0.253 µM) | relative viability ([1]; first compound 0.8 µM) | relative viability ([1]; first compound 2.53 µM) | relative viability ([1]; first compound 8 µM) | relative viability ([2]; first compound 0.253 µM) | relative viability ([2]; first compound 0.8 µM) | relative viability ([2]; first compound 2.53 µM) | relative viability ([2]; first compound 8 µM) | relative viability ([3]; first compound 0.253 µM) | relative viability ([3]; first compound 0.8 µM) | relative viability ([3]; first compound 2.53 µM) | relative viability ([3]; first compound 8 µM) | relative viability (Indole-3-carbinol; 0.253 µM) | relative viability (Indole-3-carbinol; 0.8 µM) | relative viability (Indole-3-carbinol; 2.53 µM) | relative viability (Indole-3-carbinol; 8 µM) | relative viability ([4]; first compound 0.253 µM) | relative viability ([4]; first compound 0.8 µM) | relative viability ([4]; first compound 2.53 µM) | relative viability ([4]; first compound 8 µM) |
| --- | --- | --- | --- | --- | --- | --- | --- | --- | --- | --- | --- | --- | --- | --- | --- | --- | --- | --- | --- | --- |
| HCC-78 | 0.307 | 0.328 | 0.369 | 0.342 | 0.534 | 0.449 | 0.547 | 0.538 | 0.508 | 0.533 | 0.443 | 0.452 | 1.05 | 0.83 | 0.991 | 1.06 | – | – | – | – |
| HCC-366 | 0.606 | 0.497 | 0.732 | 0.561 | 0.663 | 0.369 | 0.615 | 0.705 | 0.355 | 0.331 | 0.351 | 0.281 | 1.09 | 0.905 | 0.999 | 1.03 | – | – | – | – |
| HCC-827 | 0.9 | 1.03 | 0.945 | 0.892 | 1.04 | 1.01 | 0.962 | 0.942 | 0.767 | 0.903 | 0.896 | 0.839 | 1.07 | 1.03 | 1.06 | 0.987 | 0.579 | 0.622 | 0.67 | 0.644 |
| HOP-62 | 0.621 | 0.912 | 0.889 | 0.924 | 1.03 | 1.06 | 1.14 | 0.937 | 0.674 | 0.534 | 0.714 | 0.582 | 1.02 | 0.933 | 1.03 | 0.939 | 0.911 | 0.927 | 0.937 | 0.831 |
| IA-LM | 0.722 | 1.08 | 0.863 | 0.738 | 0.674 | 0.593 | 0.637 | 0.444 | 1.08 | 1.03 | 1.11 | 0.96 | 0.962 | 1.11 | 1.04 | 0.905 | – | – | – | – |
| LC-2-ad | 0.514 | 0.439 | 0.484 | 0.42 | 0.827 | 0.791 | 0.806 | 0.783 | 0.765 | 0.742 | 0.696 | 0.662 | 1.04 | 0.951 | 0.971 | 1.01 | 1.13 | 1.15 | 1.26 | 0.953 |
| LCLC-97TM1 | 0.368 | 0.534 | 0.389 | 0.442 | 0.163 | 0.159 | 0.178 | 0.174 | 0.858 | 1.01 | 0.818 | 0.646 | 1.08 | 1.1 | 1.02 | 0.92 | 0.823 | 0.935 | 0.859 | 0.865 |
| LCLC-103H | 1.13 | 1.12 | 1.01 | 0.977 | 1.13 | 1.04 | 1.12 | 0.972 | 0.894 | 0.736 | 0.829 | 0.706 | 0.889 | 1.01 | 0.932 | 0.915 | 0.873 | 0.939 | 0.901 | 0.811 |
| LK-2 | 0.239 | 0.218 | 0.198 | 0.229 | 0.627 | 0.572 | 0.47 | 0.536 | 0.193 | 0.295 | 0.333 | 0.448 | 0.929 | 0.872 | 1.02 | 1.05 | 0.214 | 0.203 | 0.229 | 0.181 |
| LOU-NH91 | 0.771 | 0.61 | 0.71 | 0.714 | 1.01 | 0.899 | 0.937 | 0.943 | 0.924 | 0.865 | 0.961 | 0.945 | 0.957 | 0.933 | 0.95 | 1.04 | 0.369 | 0.342 | 0.306 | 0.356 |
| NCI-H522 | – | – | – | – | – | – | – | – | 1.1 | 0.694 | 0.808 | 0.95 | 1.01 | 0.855 | 0.931 | 0.976 | 1.17 | 1.05 | 1.1 | 0.949 |
| NCI-H1395 | – | – | – | – | 1.04 | 0.974 | 1.02 | 1.14 | 0.694 | 0.65 | 0.628 | 1.05 | 0.945 | 0.92 | 0.929 | 0.881 | 0.606 | 0.813 | 0.817 | 0.686 |
| NCI-H1563 | 0.769 | 0.883 | 0.866 | 0.879 | 1.24 | 1.27 | 1.23 | 1.08 | – | – | – | – | 1.02 | 0.883 | 1.09 | 0.908 | 0.454 | 0.494 | 0.512 | 0.495 |
| NCI-H1650 | 0.907 | 1.02 | 1.16 | 0.968 | – | – | – | – | 0.535 | 0.623 | 0.657 | 0.676 | 1.03 | 0.794 | 0.943 | 0.882 | 0.167 | – | 0.19 | 0.221 |
| NCI-H1703 | 0.835 | 0.853 | 0.991 | 0.661 | 0.786 | 0.413 | 0.665 | 0.636 | – | – | – | – | 0.962 | 0.908 | 1.05 | 0.904 | – | – | – | – |
| NCI-H1792 | 0.95 | 1.01 | 0.95 | 0.984 | 0.499 | 0.37 | 0.506 | 0.47 | – | – | – | – | 0.88 | 0.833 | 0.811 | 0.984 | 0.416 | 0.484 | 0.368 | 0.398 |
| NCI-H1793 | – | – | – | – | 0.932 | 0.898 | 1.08 | 0.927 | 0.915 | 0.798 | 0.898 | 0.632 | 0.943 | 0.841 | 1.04 | 0.906 | 0.171 | 0.179 | 0.142 | 0.175 |
| NCI-H2170 | 1.26 | 1.3 | 1.15 | 1.03 | – | – | – | – | 0.906 | 0.832 | 0.851 | 0.778 | 0.999 | 1 | 0.929 | 0.955 | 0.74 | 0.665 | 0.841 | 0.624 |
| SW 900 | – | – | – | – | – | – | – | – | 0.556 | 0.453 | 0.573 | 0.622 | 0.922 | 0.772 | 0.903 | 0.764 | 0.186 | 0.155 | 0.169 | 0.166 |
